Data published in patent US20190328691A1, “ANTIBIOTIC THERAPY” (Boulos & Cooper Pharmaceuticals Pty Ltd, priority 2015, published 2019).
Where “and” joins values, the source holds several entries; their conditions need not be identical. Equal values may be shown once. Read-outs that look alike come from different tables or passages of the source.

Tests used:
[1] = tested on: Staphylococcus aureus (BAA-1717); assay: Checkerboard combination / MIC assay with S. aureus BAA-1717 (MRSA); type: cell-based
Procedure: (§1) Colonies were suspended in PBS. The absorbance of each suspension was measured with a spectrophotometer, and then the suspension was adjusted to 1×10^6 CFU/mL. The testing inoculum was prepared within 20 minutes before adding to wells of the test plate. Final cellular density in the checkerboard assays was 5×10^5 CFU/mL.
(§2) The combination effect of antibacterial substances administered together was evaluated by an in vitro checkerboard combination method with Staphylococcus aureus (ATCC 29213) and Staphylococcus aureus (BAA-1717). Ramizol and Chlopam were tested alone in 11 points by two-fold serial titration and in combination with different commercial antibiotics which were tested in a 7-point titration alone and in combination with Ramizol and Chlopam using the checkerboard technique as recommended by the Clinical & Laboratory Standards Institute (CLSI. Methods for Dilution In Antimicrobial Susceptibility Tests for Bacteria That Grow Aerobically; Approved Standard-Eighth Edition. CLSI document M07-A8 (ISBN 1-56238-689-1). Vol. 29 No. 2. Clinical and Laboratory Standards Institute, USA, 2009). The commercial antibiotics were also tested alone. Twenty-four checkerboard tests were performed.
(§3) The starting concentration of Ramizol, Chlopam, and the commercial antibiotics was four fold of the MIC. The testing range for each combination was described in the following summary tables.
(§4) Compound dilutions of Ramizol and Chlopam were performed in 100% DMSO and the final DMSO concentration in all test wells was 2%. Growth control wells also included 2% DMSO. CLSI protocol was followed for medium, inoculum preparation, and endpoint reading. The commercial antibiotics were dissolved and diluted in the CLSI specified diluent. The final inoculum count for each strain was 5×10^5 CFU/mL.
Each test substance was dissolved and diluted in 100% DMSO or specified solvent. Each test substance dilution (2 μL) was added to 96 μL broth CAMHB. CAMHB seeded with S. aureus BAA-1717 at 1×10^6 CFU/mL (100 μL) was then added to the plate to generate a final cell count at 5×10^5 CFU/mL.
(§5) Assay plates were incubated and MIC endpoints were read as described in the MIC assay. FIC (Fraction Inhibitory Concentration) and FIC Index (FICI) values for each test condition and the average of FICI values of all pairwise combinations were calculated to determine if synergy or antagonism existed between the two substances. The FIC index was determined by calculating the sum of the ratios of MICs for both substances. Arithmetically, the FIC Index of a combination of Substance 1 and Substance 2 was defined as following: FICI=Σ[FIC(Substance 1)+FIC(Substance 2)]=[(MIC of Substance 1 in combination/MIC of Substance 1 alone)+(MIC of Substance 2 in combination/MIC of Substance 2 alone)]. Synergy is defined as the FICI (Σ)≤0.5; additivity as FICI (Σ)>0.5 to ≤1; indifference as FICI (Σ)>1 to ≤4; antagonism is defined as the FICI (Σ)>4 (Zinner and Blaser, J. Journal of Antimicrobial Chemotherapy (1986), 17, 1-5; Amin, et al BMC Complementary & Alternative Medicine (2015), 15, 59; Zuo, et al. Molecules (2011), 16, 9819-9826).

[2] = tested on: Staphylococcus aureus (ATCC 29213); assay: Checkerboard combination / MIC assay with S. aureus ATCC 29213; type: cell-based; details: S. aureus ATCC 29213; for MIC: Staphylococcus aureus, read-out: MIC of antibiotic alone
Procedure: as §1, §2, §3, §4
Cefepime, Daptomycin, Linezolid, Mupirocin, Oxacillin and Vancomycin were also tested alone. Each test substance was dissolved and diluted in 100% DMSO or specified solvent. Each test substance dilution (2 μL) was added to 96 μL broth CAMHB. CAMHB seeded with S. aureus ATCC 29213 at 1×10^6 CFU/mL (100 μL) was then added to the plate to generate a final cell count at 5×10^5 CFU/mL.
as §5

- MIC of antibiotic in combination with Chlopam ([1]; Chlopam 0.001953 μg/mL, S. aureus ATCC BAA-1717): 256 µg/mL
- MIC of antibiotic in combination with Chlopam ([1]; Chlopam 0.003906 μg/mL, S. aureus ATCC BAA-1717): 256 µg/mL
- MIC of antibiotic in combination with Chlopam ([1]; Chlopam 0.0078125 μg/mL, S. aureus ATCC BAA-1717): 256 µg/mL
- MIC of antibiotic in combination with Chlopam ([1]; Chlopam 0.015625 μg/mL, S. aureus ATCC BAA-1717): 256 µg/mL
- MIC of antibiotic in combination with Chlopam ([1]; Chlopam 0.03125 μg/mL, S. aureus ATCC BAA-1717): 256 µg/mL
- MIC of antibiotic in combination with Chlopam ([1]; Chlopam 0.125 μg/mL, S. aureus ATCC BAA-1717): 128 µg/mL
- MIC of antibiotic in combination with Chlopam ([1]; Chlopam 0.5 μg/mL, S. aureus ATCC BAA-1717): 8 µg/mL
- MIC of antibiotic in combination with Ramizol ([1]; Ramizol 0.015625 μg/mL, S. aureus ATCC BAA-1717): 256 µg/mL
- MIC of antibiotic in combination with Ramizol ([1]; Ramizol 0.03125 μg/mL, S. aureus ATCC BAA-1717): 256 µg/mL
- MIC of antibiotic in combination with Ramizol ([1]; Ramizol 0.0625 μg/mL, S. aureus ATCC BAA-1717): 256 µg/mL
- MIC of antibiotic in combination with Ramizol ([1]; Ramizol 0.125 μg/mL, S. aureus ATCC BAA-1717): 128 µg/mL
- MIC of antibiotic in combination with Ramizol ([1]; Ramizol 0.25 μg/mL, S. aureus ATCC BAA-1717): 128 µg/mL
- MIC of antibiotic in combination with Ramizol ([1]; Ramizol 0.5 μg/mL, S. aureus ATCC BAA-1717): 128 µg/mL
- MIC of antibiotic in combination with Ramizol ([1]; Ramizol 1 μg/mL, S. aureus ATCC BAA-1717): 64 µg/mL
- MIC ([1]; Staphylococcus aureus, ATCC BAA-1717 / BAA-1717, Table 4, checkerboard series with Chlopam, S. aureus ATCC BAA-1717, read-out: MIC of antibiotic alone): 256 µg/mL
- MIC of antibiotic alone ([1]; Table 7, checkerboard series with Ramizol, S. aureus ATCC BAA-1717): 256 µg/mL
- MIC of antibiotic in combination with Chlopam ([2]; Chlopam 0.003906 μg/mL): 4 µg/mL
- MIC of antibiotic in combination with Chlopam ([2]; Chlopam 0.0078125 μg/mL): 4 µg/mL
- MIC of antibiotic in combination with Chlopam ([2]; Chlopam 0.015625 μg/mL): 4 µg/mL
- MIC of antibiotic in combination with Chlopam ([2]; Chlopam 0.25 μg/mL): 2 µg/mL
- MIC of antibiotic in combination with Chlopam ([2]; Chlopam 0.5 μg/mL): 0.125 µg/mL
- MIC of antibiotic in combination with Ramizol ([2]; Ramizol 0.015625 μg/mL): 4 µg/mL
- MIC of antibiotic in combination with Ramizol ([2]; Ramizol 0.03125 μg/mL): 4 µg/mL
- MIC of antibiotic in combination with Ramizol ([2]; Ramizol 0.0625 μg/mL): 4 µg/mL
- MIC of antibiotic in combination with Ramizol ([2]; Ramizol 0.125 μg/mL): 4 µg/mL
- MIC of antibiotic in combination with Ramizol ([2]; Ramizol 1 μg/mL): 2 µg/mL
- MIC of antibiotic in combination with Ramizol ([2]; Ramizol 2 μg/mL): 1 µg/mL
- MIC of antibiotic in combination with Ramizol ([2]; Ramizol 4 μg/mL): 0.125 µg/mL
- MIC ([2]; ATCC29213, Table 4, checkerboard series with Chlopam): 4 µg/mL
- MIC ([2]; ATCC29213, Table 7, checkerboard series with Ramizol): 4 µg/mL
SMILES: CO/N=C(\C(=O)N[C@@H]1C(=O)N2C(C(=O)[O-])=C(C[N+]3(C)CCCC3)CS[C@H]12)c1csc(N)n1 [Cefepime]
- FICI of combination with Chlopam ([1]; Chlopam 0.001953 μg/mL + labelled antibiotic at MIC of same cell, S. aureus ATCC BAA-1717): 1.0
- FICI of combination with Chlopam ([1]; Chlopam 0.003906 μg/mL + labelled antibiotic at MIC of same cell, S. aureus ATCC BAA-1717): 1.0
- FICI of combination with Chlopam ([1]; Chlopam 0.0078125 μg/mL + labelled antibiotic at MIC of same cell, S. aureus ATCC BAA-1717): 1.0
- FICI of combination with Chlopam ([1]; Chlopam 0.015625 μg/mL + labelled antibiotic at MIC of same cell, S. aureus ATCC BAA-1717): 1.0
- FICI of combination with Chlopam ([1]; Chlopam 0.03125 μg/mL + labelled antibiotic at MIC of same cell, S. aureus ATCC BAA-1717): 1.0
- FICI of combination with Chlopam ([1]; Chlopam 0.125 μg/mL + labelled antibiotic at MIC of same cell, S. aureus ATCC BAA-1717): 0.6
- FICI of combination with Chlopam ([1]; Chlopam 0.5 μg/mL + labelled antibiotic at MIC of same line, S. aureus ATCC BAA-1717): 0.5
- Effect of individual antibiotic combinations of lower concentrations ([1]; Chlopam and Cefepime: 0.25 and 64, 0.25 and 32, 0.25 and 16, 0.50 and 8 μg/mL, S. aureus ATCC BAA-1717): synergistic effect
- FICI of combination with Ramizol ([1]; Ramizol 0.015625 μg/mL + labelled antibiotic at MIC of same cell, S. aureus ATCC BAA-1717): 1.0
- FICI of combination with Ramizol ([1]; Ramizol 0.03125 μg/mL + labelled antibiotic at MIC of same cell, S. aureus ATCC BAA-1717): 1.0
- FICI of combination with Ramizol ([1]; Ramizol 0.0625 μg/mL + labelled antibiotic at MIC of same cell, S. aureus ATCC BAA-1717): 1.0
- FICI of combination with Ramizol ([1]; Ramizol 0.125 μg/mL + labelled antibiotic at MIC of same line, S. aureus ATCC BAA-1717): 0.5
- FICI of combination with Ramizol ([1]; Ramizol 0.25 μg/mL + labelled antibiotic at MIC of same cell, S. aureus ATCC BAA-1717): 0.6
- FICI of combination with Ramizol ([1]; Ramizol 0.5 μg/mL + labelled antibiotic at MIC of same cell, S. aureus ATCC BAA-1717): 0.6
- FICI of combination with Ramizol ([1]; Ramizol 1 μg/mL + labelled antibiotic at MIC of same line, S. aureus ATCC BAA-1717): 0.5
- FICI of combination with Ramizol ([1]; Ramizol 2 μg/mL + labelled antibiotic at MIC of same line, S. aureus ATCC BAA-1717): 0.5 and 0.6
- Effect of individual antibiotic combinations of lower concentrations ([1]; Ramizol and Cefepime: 0.125 and 128, 1 and 64, 2 and 8 μg/mL, S. aureus ATCC BAA-1717): synergistic effect
- Effect of the combinations with Chlopam (by mean FICI) ([1]; labelled antibiotic + Chlopam, S. aureus BAA-1717): additive effect
- mean FICI of combination with Chlopam ([1]; labelled antibiotic + Chlopam, mean of all pairwise combinations, S. aureus ATCC BAA-1717): 0.8
- Effect of the combinations with Ramizol (by mean FICI) ([1]; labelled antibiotic + Ramizol, S. aureus BAA-1717): additive effect
- mean FICI of combination with Ramizol ([1]; labelled antibiotic + Ramizol, mean of all pairwise combinations, S. aureus ATCC BAA-1717): 0.696
- FICI of combination with Chlopam ([2]; Chlopam 0.003906 μg/mL + labelled antibiotic at MIC of same cell): 1.0
- FICI of combination with Chlopam ([2]; Chlopam 0.0078125 μg/mL + labelled antibiotic at MIC of same cell): 1.0
- FICI of combination with Chlopam ([2]; Chlopam 0.015625 μg/mL + labelled antibiotic at MIC of same cell): 1.0
- FICI of combination with Chlopam ([2]; Chlopam 0.25 μg/mL + labelled antibiotic at MIC of same cell): 1.0
- FICI of combination with Chlopam ([2]; Chlopam 0.5 μg/mL + labelled antibiotic at MIC of same cell): 1.0
- FICI of combination with Ramizol ([2]; Ramizol 0.015625 μg/mL + labelled antibiotic at MIC of same cell): 1.0
- FICI of combination with Ramizol ([2]; Ramizol 0.03125 μg/mL + labelled antibiotic at MIC of same cell): 1.0
- FICI of combination with Ramizol ([2]; Ramizol 0.0625 μg/mL + labelled antibiotic at MIC of same cell): 1.0
- FICI of combination with Ramizol ([2]; Ramizol 0.125 μg/mL + labelled antibiotic at MIC of same cell): 1.0
- FICI of combination with Ramizol ([2]; Ramizol 1 μg/mL + labelled antibiotic at MIC of same cell): 0.8
- FICI of combination with Ramizol ([2]; Ramizol 2 μg/mL + labelled antibiotic at MIC of same cell): 0.8
- FICI of combination with Ramizol ([2]; Ramizol 4 μg/mL + labelled antibiotic at MIC of same cell): 1.0
- mean FICI of combination with Chlopam ([2]; labelled antibiotic + Chlopam, mean of all pairwise combinations): 1.1
- Effect of the combinations with Ramizol (by mean FICI) ([2]; labelled antibiotic + Ramizol): additive effect
- mean FICI of combination with Ramizol ([2]; labelled antibiotic + Ramizol, mean of all pairwise combinations): 1.0
